Reference: ChEMBL document CHEMBL1201862, “PubChem BioAssay data set” (2004)
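Values below derive from 48-hour exposures of cells grown in 96-well plates, with endpoints linearly interpolated between the two concentrations bracketing the appropriate inhibition level. Here, GI50 denotes the concentration required for 50% inhibition of growth.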 Active and inactive are the calls of the source. Rule as the data show it: active = GI50 up to about 1.1 µM and inactive = higher.

Key:
Assay in all cases: growth of human tumour cells (NCI), 48 h
SNB-78 = tested on: SNB-78
SF-268 = tested on: SF-268
K562 = tested on: K562
UO-31 = tested on: UO-31
LXFL 529 = tested on: LXFL 529
NCI-H460 = tested on: NCI-H460
HOP-92 = tested on: HOP-92
UACC-257 = tested on: UACC-257
COLO 205 = tested on: COLO 205
SK-MEL-28 = tested on: SK-MEL-28
OVCAR-8 = tested on: OVCAR-8
Malme-3M = tested on: Malme-3M
CCRF-CEM = tested on: CCRF-CEM
M19-MEL = tested on: M19-MEL
IGROV-1 = tested on: IGROV-1
OVCAR-5 = tested on: OVCAR-5
HCT-116 = tested on: HCT-116
EKVX = tested on: EKVX
OVCAR-3 = tested on: OVCAR-3
A549 = tested on: A549
U-251 = tested on: U-251
CAKI-1 = tested on: CAKI-1
SNB-19 = tested on: SNB-19
KM-20L2 = tested on: KM-20L2
DMS-273 = tested on: DMS-273
RXF 631 = tested on: RXF 631
MOLT-4 = tested on: MOLT-4
M14 = tested on: M14
DLD-1 = tested on: DLD-1
HOP-62 = tested on: HOP-62
A498 = tested on: A498
NCI-H23 = tested on: NCI-H23
ACHN = tested on: ACHN
SN12C = tested on: SN12C
HCC 2998 = tested on: HCC 2998
SF-539 = tested on: SF-539
UACC-62 = tested on: UACC-62
OVCAR-4 = tested on: OVCAR-4
SNB-75 = tested on: SNB-75
XF498 = tested on: XF498
RPMI-8226 = tested on: RPMI-8226
DMS-114 = tested on: DMS-114
NCI-H522 = tested on: NCI-H522
786-0 = tested on: 786-0
KM12 = tested on: KM12
SW-620 = tested on: SW-620
NCI-H226 = tested on: NCI-H226
SR = tested on: SR
SK-OV-3 = tested on: SK-OV-3
SK-MEL-2 = tested on: SK-MEL-2
HT-29 = tested on: HT-29
HL-60 = tested on: HL-60
HOP-18 = tested on: HOP-18
RXF 393 = tested on: RXF 393
SF-295 = tested on: SF-295
LOX IMVI = tested on: LOX IMVI
HCT-15 = tested on: HCT-15
SK-MEL-5 = tested on: SK-MEL-5
TK-10 = tested on: TK-10

In the case of COc1cc(/C=C\c2ccc(OC(C)=O)cc2)cc(OC)c1OC, the GI50 (SNB-78) is reported as 5.62 µM (inactive), the GI50 (SF-268) is reported as 9.59 µM (inactive) and the GI50 (K562) is reported as 2.59 µM (inactive). The GI50 (UO-31) was 4.08 µM (inactive), the GI50 (LXFL 529) was 6.1 µM (inactive) and the GI50 (NCI-H460) was 4.1 µM (inactive). The GI50 (HOP-92) was 20 µM (inactive), the GI50 (UACC-257) was 2.48 µM (inactive) and the GI50 (COLO 205) was 13.3 µM (inactive). For the same compound, the GI50 (SK-MEL-28) was 1.44 µM (inactive), the GI50 (OVCAR-8) was 4.03 µM (inactive) and the GI50 (Malme-3M) was 2.06 µM (inactive). The GI50 (CCRF-CEM) was 4.06 µM (inactive), the GI50 (M19-MEL) was 6.4 µM (inactive) and the GI50 (IGROV-1) was 7.59 µM (inactive). The GI50 (OVCAR-5) was 62.7 µM (inactive), the GI50 (HCT-116) was 4.43 µM (inactive) and the GI50 (EKVX) was 10 µM (inactive). The GI50 (OVCAR-3) was 3.29 µM (inactive), the GI50 (A549) was 6.62 µM (inactive) and the GI50 (U-251) was 2.37 µM (inactive). The GI50 (CAKI-1) was 29.1 µM (inactive), the GI50 (SNB-19) was 0.668 µM (active) and the GI50 (KM-20L2) was 25.9 µM (inactive). For the same compound, the GI50 (DMS-273) was 0.887 µM (active), the GI50 (RXF 631) was 17.7 µM (inactive) and the GI50 (MOLT-4) was 3.78 µM (inactive). The GI50 (M14) was 4.49 µM (inactive), the GI50 (DLD-1) was 3.99 µM (inactive) and the GI50 (HOP-62) was 5.32 µM (inactive). The GI50 (A498) was 22.4 µM (inactive), the GI50 (NCI-H23) was 0.352 µM (active) and the GI50 (ACHN) was 6.46 µM (inactive). For the same compound, the GI50 (SN12C) was 4.22 µM (inactive), the GI50 (HCC 2998) was 8.13 µM (inactive) and the GI50 (SF-539) was 2.26 µM (inactive). For the same compound, the GI50 (UACC-62) was 4.85 µM (inactive), the GI50 (OVCAR-4) was 19.1 µM (inactive) and the GI50 (SNB-75) was 2.2 µM (inactive). For the same compound, the GI50 (XF498) was 3.39 µM (inactive), the GI50 (RPMI-8226) was 0.587 µM (active) and the GI50 (DMS-114) was 3.33 µM (inactive). The GI50 (NCI-H522) was 2.92 µM (inactive), the GI50 (786-0) was 3.56 µM (inactive) and the GI50 (KM12) was 2.21 µM (inactive). The GI50 (SW-620) was 3.36 µM (inactive), the GI50 (NCI-H226) was 33.7 µM (inactive) and the GI50 (SR) was 5.04 µM (inactive). The GI50 (SK-OV-3) was > 100 µM (inactive), the GI50 (SK-MEL-2) was 4.26 µM (inactive) and the GI50 (HT-29) was 10.8 µM (inactive).
O=C1OC(CC(=O)c2ccccc2Cl)C(Cl)=C1Cl (stereo not given) was tested, and the GI50 (SNB-78) was 33 µM (inactive), the GI50 (SF-268) was > 100 µM (inactive) and the GI50 (K562) was > 100 µM (inactive). The GI50 (UO-31) was > 100 µM (inactive), the GI50 (LXFL 529) was > 100 µM (inactive) and the GI50 (HL-60) was > 100 µM (inactive). The GI50 (NCI-H460) was > 100 µM (inactive), the GI50 (HOP-92) was > 100 µM (inactive) and the GI50 (UACC-257) was > 100 µM (inactive). The GI50 (COLO 205) was > 100 µM (inactive), the GI50 (SK-MEL-28) was > 100 µM (inactive) and the GI50 (OVCAR-8) was > 100 µM (inactive). For the same compound, the GI50 (Malme-3M) was > 100 µM (inactive), the GI50 (HOP-18) was > 100 µM (inactive) and the GI50 (CCRF-CEM) was 48.3 µM (inactive). For the same compound, the GI50 (M19-MEL) was > 100 µM (inactive), the GI50 (IGROV-1) was > 100 µM (inactive) and the GI50 (OVCAR-5) was > 100 µM (inactive). For the same compound, the GI50 (HCT-116) was > 100 µM (inactive), the GI50 (EKVX) was > 100 µM (inactive) and the GI50 (OVCAR-3) was > 100 µM (inactive). The GI50 (A549) was > 100 µM (inactive), the GI50 (U-251) was > 100 µM (inactive) and the GI50 (CAKI-1) was > 100 µM (inactive). The GI50 (SNB-19) was > 100 µM (inactive), the GI50 (RXF 393) was > 100 µM (inactive) and the GI50 (SF-295) was > 100 µM (inactive). For the same compound, the GI50 (RXF 631) was 62.4 µM (inactive), the GI50 (MOLT-4) was > 100 µM (inactive) and the GI50 (M14) was > 100 µM (inactive). For the same compound, the GI50 (DLD-1) was > 100 µM (inactive), the GI50 (HOP-62) was > 100 µM (inactive) and the GI50 (NCI-H23) was > 100 µM (inactive). The GI50 (ACHN) was > 100 µM (inactive), the GI50 (SN12C) was > 100 µM (inactive) and the GI50 (HCC 2998) was > 100 µM (inactive). For the same compound, the GI50 (SF-539) was > 100 µM (inactive), the GI50 (UACC-62) was > 100 µM (inactive) and the GI50 (OVCAR-4) was > 100 µM (inactive). The GI50 (LOX IMVI) was > 100 µM (inactive), the GI50 (RPMI-8226) was > 100 µM (inactive) and the GI50 (DMS-114) was > 100 µM (inactive). The GI50 (NCI-H522) was > 100 µM (inactive), the GI50 (786-0) was > 100 µM (inactive) and the GI50 (KM12) was > 100 µM (inactive). For the same compound, the GI50 (SW-620) was > 100 µM (inactive), the GI50 (HCT-15) was greater than 100 µM and the GI50 (SK-MEL-5) was > 100 µM (inactive). For the same compound, the GI50 (NCI-H226) was > 100 µM (inactive), the GI50 (TK-10) was > 100 µM (inactive) and the GI50 (SR) was > 100 µM (inactive). The GI50 (SK-OV-3) was > 100 µM (inactive), the GI50 (SK-MEL-2) was > 100 µM (inactive) and the GI50 (HT-29) was > 100 µM (inactive).
